Laboratory results published in patent publication US20240158446A1, “CYCLIC COMPOUND HAVING SELECTIVE INHIBITORY ACTION ON KRAS OVER HRAS AND NRAS” (CHUGAI SEIYAKU KABUSHIKI KAISHA, priority 2021, published 2024).
Read-outs that look alike come from different tables or passages of the source. *1 amine or outer side, *2 acyl side, *3 side chain or, on linkers, in order; H or OH if unused. Where a SMILES comes first, the peptide text is derived from it. Bridges are numbered along the chain shown (N, C = ends). [ ]: non-standard residue; d: D form. The star is where a group is joined. hPhe(3,5-F2-4-CF3) = N[C@@H](CCc1cc(F)c(C(F)(F)F)c(F)c1)C(=O)O; hPhe(3-Cl-4-CF3) = N[C@@H](CCc1ccc(C(F)(F)F)c(Cl)c1)C(=O)O; X17 = CCCCN([C@@H](Cc1ccc(C(F)(F)F)cc1)C(=O)[*:2])[*:1]; NPrPhe(4-CF3) = CCCN[C@@H](Cc1ccc(C(F)(F)F)cc1)C(=O)O; NMeGly(cPent) = CN[C@H](C(=O)O)C1CCCC1; Pro(4,4-F2) = O=C(O)[C@@H]1CC(F)(F)CN1; NMeD = CN[C@@H](CC(=O)O)C(=O)O; NMeL = CN[C@@H](CC(C)C)C(=O)O; αMeS = C[C@](N)(CO)C(=O)O; Morpholide = C1CN(*)CCO1; Ac5c = NC1(C(=O)O)CCCC1; Aze = O=C(O)[C@@H]1CCN1; Sar = CNCC(=O)O; Allyl = C=CC*

Experiments:
[1] = molecular target: GDP-bound KRAS wild-type protein (Homo sapiens, UniProt P01116); assay: Binding to KRAS by surface plasmon resonance (SPR), Single Cycle Kinetics; conditions: GDP-bound KRAS wild-type protein, read-out: KRAS KD
[2] = molecular target: GDP-bound HRAS wild-type protein (Homo sapiens, UniProt P01112); assay: Binding to HRAS by surface plasmon resonance (SPR), Single Cycle Kinetics; conditions: for HRAS/KRAS (ratio of KD value for HRAS to KD value for KRAS) / HRAS/KRAS (ratio of KD value with respect to HRAS to KD value with respect to KRAS): SPR, GDP-bound HRAS wild-type protein vs GDP-bound KRAS wild-type protein; for HRAS/KRAS (ratio of KD value with respect to GDP-bound HRAS wild-type protein to KD value with respect to KRAS): SPR KD ratio HRAS/KRAS, class symbols
[3] = molecular target: GDP-bound NRAS wild-type protein (Homo sapiens, UniProt P01111); assay: Binding to NRAS by surface plasmon resonance (SPR), Single Cycle Kinetics; conditions: for NRAS/KRAS (ratio of KD value for NRAS to KD value for KRAS) / NRAS/KRAS (ratio of KD value with respect to NRAS to KD value with respect to KRAS): SPR, GDP-bound NRAS wild-type protein vs GDP-bound KRAS wild-type protein; for NRAS/KRAS (ratio of KD value with respect to GDP-bound NRAS wild-type protein to KD value with respect to KRAS): SPR KD ratio NRAS/KRAS, class symbols
[4] = SPR Single Cycle Kinetics, 1:1 binding model
[5] = SPR, Single Cycle Kinetics, 1:1 binding model

GDP-bound KRAS wild-type protein, sequence (P01116 whole entry): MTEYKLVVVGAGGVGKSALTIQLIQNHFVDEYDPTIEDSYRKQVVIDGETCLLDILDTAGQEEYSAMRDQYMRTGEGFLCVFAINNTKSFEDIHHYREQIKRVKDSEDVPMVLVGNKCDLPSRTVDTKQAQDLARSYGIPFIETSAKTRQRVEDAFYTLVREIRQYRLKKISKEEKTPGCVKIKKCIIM
GDP-bound HRAS wild-type protein, sequence (P01112 whole entry): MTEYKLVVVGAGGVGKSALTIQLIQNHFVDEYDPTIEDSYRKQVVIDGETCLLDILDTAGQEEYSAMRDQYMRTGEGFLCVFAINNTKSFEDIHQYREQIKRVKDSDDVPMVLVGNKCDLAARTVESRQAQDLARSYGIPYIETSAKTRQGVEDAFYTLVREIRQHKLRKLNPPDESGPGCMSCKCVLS
GDP-bound NRAS wild-type protein, sequence (P01111 whole entry): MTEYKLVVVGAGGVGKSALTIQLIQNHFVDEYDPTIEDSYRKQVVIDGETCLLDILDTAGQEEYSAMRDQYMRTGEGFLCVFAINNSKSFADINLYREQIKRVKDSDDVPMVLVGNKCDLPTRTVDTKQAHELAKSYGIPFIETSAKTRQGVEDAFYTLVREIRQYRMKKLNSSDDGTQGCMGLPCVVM

Row | SMILES | Kd ([1]; SPR, Single Cycle Kinetics) [nM] | HRAS/KRAS (ratio of KD value for HRAS to KD value for KRAS) [2] | NRAS/KRAS (ratio of KD value for NRAS to KD value for KRAS) [3] | Kd [1, 4] [nM] | other results
1 | CCO[C@@H]1C[C@H]2C(=O)NC3(CC(C)(C)C3)C(=O)N(C)[C@@H](C(CC)CC)C(=O)N(C)[C@H](C(=O)N(C)C)CC(=O)N(C)[C@@H](CC3CCC3)C(=O)N[C@@H]([C@@H](C)CC)C(=O)N(C)CC(=O)N(C)[C@H]3C/C=C\CCN(C3=O)[C@@H](Cc3ccc(C(F)(F)F)cc3)C(=O)N(C)CC(=O)N[C@@H](CCc3ccc(C(F)(F)F)c(OC)c3)C(=O)N2C1 [PP2164] | 0.29 | A (a compound having 10 or more and less than 20 is denoted as A) | A (a compound having 10 or more and less than 20 is denoted as A) |  | 
2 | CCCCN1C(=O)CN(C)C(=O)CN(C)C(=O)[C@H]([C@@H](C)CC)NC(=O)[C@H](CC(C)C)N(C)C(=O)C[C@@H](C(=O)N2CCOCC2)N(C)C(=O)[C@H](C2CCCC2)N(C)C(=O)C2(CCCC2)NC(=O)[C@@H]2CCCN2C(=O)[C@H](CCc2ccc(C(F)(F)F)c(Cl)c2)NC(=O)CN(C)C(=O)[C@@H]1Cc1ccc(C(F)(F)F)cc1 [PP0120] ([NMeL]I[Sar][Sar][X17][Sar][hPhe(3-Cl-4-CF3)]P[Ac5c][NMeGly(cPent)][NMeD]-Morpholide; lactam N-11) |  | C (A compound having a KD ratio of 0.1 or more and less than 3 is denoted as C) | B (a compound having 3 or more and less than 10 is denoted as B) | 0.19 | 
3 | CCO[C@@H]1C[C@H]2C(=O)NC3(CCC3)C(=O)N(C)[C@@H](C3CCCC3)C(=O)N(C)[C@H](C(=O)N3CCOCC3)CC(=O)N(C)[C@@H](CC(C)C)C(=O)N[C@@H]([C@@H](C)CC)C(=O)N(C)CC(=O)N(C)[C@H]3CCCCCN(C3=O)[C@@H](Cc3ccc(F)c(Cl)c3)C(=O)N(C)CC(=O)N[C@@H](CCc3cc(F)c(C(F)(F)F)c(F)c3)C(=O)N2C1 [PP0919] | 0.81 | B (a compound having 3 or more and less than 10 is denoted as B) | B (a compound having 3 or more and less than 10 is denoted as B) |  | 
4 | CCCN(C)C(=O)[C@@H]1CC(=O)N(C)[C@@H](C(C)C)C(=O)N[C@@H]([C@@H](C)CC)C(=O)N(C)CC(=O)N(C)[C@H]2C/C=C\CCN(C2=O)[C@@H](Cc2ccc(C(F)(F)F)cc2)C(=O)N(C)CC(=O)N[C@@H](CCc2cc(F)c(C(F)(F)F)c(F)c2)C(=O)N2C[C@@H](C)C[C@H]2C(=O)NC2(CCC2)C(=O)N(C)[C@@H](C2CCCC2)C(=O)N1C [PP2079] | 0.29 | A (a compound having 10 or more and less than 20 is denoted as A) | A (a compound having 10 or more and less than 20 is denoted as A) |  | 
5 | C#CC[C@H]1C(=O)N[C@@H]([C@@H](C)CC)C(=O)N(C)CC(=O)N(C)[C@H]2CCCCCN(C2=O)[C@@H](Cc2ccc(C(F)(F)F)cc2)C(=O)N(C)CC(=O)N[C@@H](CCc2cc(F)c(C(F)(F)F)c(F)c2)C(=O)N2C[C@H](OCC)C[C@H]2C(=O)NC2(CCC2)C(=O)N(C)[C@@H](C2CCCC2)C(=O)N(C)[C@H](C(=O)N2CCOCC2)CC(=O)N1C [PP0681] |  |  |  | 0.44 | HRAS/KRAS (ratio of KD value with respect to HRAS to KD value with respect to KRAS) [2]: B (a compound having 3 or more and less than 10 is denoted as B); NRAS/KRAS (ratio of KD value with respect to NRAS to KD value with respect to KRAS) [3]: B (a compound having 3 or more and less than 10 is denoted as B)
6 | C=CCOC[C@]1(C)NC(=O)[C@@H]2CCCN2C(=O)[C@H](CCc2cc(F)c(C(F)(F)F)c(F)c2)NC(=O)CN(C)C(=O)[C@H](Cc2ccc(C(F)(F)F)cc2)N(CCC)C(=O)CN(C)C(=O)CN(C)C(=O)[C@H]([C@@H](C)CC)NC(=O)[C@H](CC(C)C)N(C)C(=O)C[C@@H](C(=O)N(C)C)N(C)C(=O)[C@H](C2CCCC2)N(C)C1=O [PP0742] ([NMeL]I[Sar][Sar][NPrPhe(4-CF3)][Sar][hPhe(3,5-F2-4-CF3)]P[αMeS](Allyl)[NMeGly(cPent)][NMeD]-NMe2; lactam N-11) |  |  |  | 0.51 | HRAS/KRAS (ratio of KD value with respect to HRAS to KD value with respect to KRAS) [2]: B (a compound having 3 or more and less than 10 is denoted as B); NRAS/KRAS (ratio of KD value with respect to NRAS to KD value with respect to KRAS) [3]: B (a compound having 3 or more and less than 10 is denoted as B)
7 | CCO[C@@H]1C[C@H]2C(=O)NC3(CCC3)C(=O)N(C)[C@@H](C3CCCC3)C(=O)N(C)C(C(C)C)CC(=O)N(C)[C@@H](CC)C(=O)N[C@@H]([C@@H](C)CC)C(=O)N(C)CC(=O)N(C)[C@H]3C/C=C\CCN(C3=O)[C@@H](Cc3ccc(C(F)(F)F)cc3)C(=O)N(C)CC(=O)N[C@@H](CCc3cc(F)c(C(F)(F)F)c(F)c3)C(=O)N2C1 (stereo partly drawn) [PP1590] |  |  |  |  | Kd [1, 5]: 0.29 nM; HRAS/KRAS (ratio of KD value for HRAS to KD value for KRAS) ([2]; KD ratio class): B (a compound having 3 or more and less than 10 is denoted as B); NRAS/KRAS (ratio of KD value for NRAS to KD value for KRAS) ([3]; KD ratio class): A (a compound having 10 or more and less than 20 is denoted as A)
8 | CCO[C@@H]1C[C@H]2C(=O)NC3(CC(F)(F)C3)C(=O)N(C)[C@@H](C(CC)CC)C(=O)N(C)C(C(C)C)CC(=O)N(C)[C@@H](CC)C(=O)N[C@@H]([C@@H](C)CC)C(=O)N(C)CC(=O)N(C)[C@H]3C/C=C\CCN(C3=O)[C@@H](Cc3ccc(C(F)(F)F)cc3)C(=O)N(C)CC(=O)N[C@@H](CCc3cc(F)c(C(F)(F)F)c(F)c3)C(=O)N2C1 (stereo partly drawn) [PP1591] |  |  |  |  | Kd [1, 5]: 4.6 nM; HRAS/KRAS (ratio of KD value for HRAS to KD value for KRAS) ([2]; KD ratio class): A (a compound having 10 or more and less than 20 is denoted as A); NRAS/KRAS (ratio of KD value for NRAS to KD value for KRAS) ([3]; KD ratio class): A (a compound having 10 or more and less than 20 is denoted as A)
9 | CC[C@H](C)[C@@H]1NC(=O)[C@@H]2CCC/C=C/c3ccc(cc3)C[C@@H](C(=O)N(C)CC(=O)N[C@@H](CCc3ccc(Cl)c(Cl)c3)C(=O)N3C[C@H](OC(C)C)C[C@H]3C(=O)NC3(CC(C)(C)C3)C(=O)N(C)[C@@H](C3CCCC3)C(=O)N(C)[C@H](C(=O)N3CCCC3)CC(=O)N2C)N2CC/C=C\C[C@@H](C2=O)N(C)C(=O)CN(C)C1=O [PP2596] |  |  |  | 0.16 | HRAS/KRAS (ratio of KD value with respect to GDP-bound HRAS wild-type protein to KD value with respect to KRAS) [2]: A (a compound having 10 or more and less than 20 is denoted as A); NRAS/KRAS (ratio of KD value with respect to GDP-bound NRAS wild-type protein to KD value with respect to KRAS) [3]: A (a compound having 10 or more and less than 20 is denoted as A)
10 | CCO[C@@H]1C[C@H]2C(=O)NC3(CC(F)(F)C3)C(=O)N(C)[C@@H](C3CCCC3)C(=O)N(C)[C@H](C(=O)N3CCOCC3)CC(=O)N(C)[C@@H](CC(C)C)C(=O)N[C@@H]([C@@H](C)CC)C(=O)N(C)CC(=O)N(C)[C@H]3C[C@H]4C[C@H]4CN(C3=O)[C@@H](Cc3ccc(C(F)(F)F)cc3)C(=O)N(C)CC(=O)N[C@@H](CCc3cc(F)c(C(F)(F)F)c(F)c3)C(=O)N2C1 [PP0831] | 0.32 | C (A compound having a KD ratio of 0.1 or more and less than 3 is denoted as C) | C (A compound having a KD ratio of 0.1 or more and less than 3 is denoted as C) |  | 
11 | CC[C@H](C)[C@@H]1NC(=O)[C@H](CC2CC2)N(C)C(=O)C[C@@H](C(=O)N(C)C)N(C)C(=O)[C@H](C2CCCC2)N(C)C(=O)C2(CC(C)(C)C2)NC(=O)[C@@H]2C[C@@H](C(F)(F)F)CN2C(=O)[C@H](CCc2cc(F)c(C(F)(F)F)c(F)c2)NC(=O)CN(C)C(=O)[C@H](Cc2ccc(F)cc2)N2CC/C=C\C[C@@H](C2=O)N(C)C(=O)CN(C)C1=O [PP1507] |  |  |  |  | Kd [1, 5]: 0.17 nM; HRAS/KRAS (ratio of KD value for HRAS to KD value for KRAS) ([2]; KD ratio class): A (a compound having 10 or more and less than 20 is denoted as A); NRAS/KRAS (ratio of KD value for NRAS to KD value for KRAS) ([3]; KD ratio class): A (a compound having 10 or more and less than 20 is denoted as A)
12 | CCC(CC)[C@H]1C(=O)N(C)[C@H](C(=O)N2CCCC2)CC(=O)N(C)[C@H]2CCC/C=C/c3ccc(cc3)C[C@@H](C(=O)N(C)CC(=O)N[C@@H](CCc3ccc(Cl)c(Cl)c3)C(=O)N3CCC[C@H]3C(=O)NC3(CC(C)(C)C3)C(=O)N1C)N1CC/C=C\C[C@@H](C1=O)N(C)C(=O)CN(C)C(=O)[C@H]([C@@H](C)CC)NC2=O [PP2604] |  |  |  | 0.4 | HRAS/KRAS (ratio of KD value with respect to GDP-bound HRAS wild-type protein to KD value with respect to KRAS) [2]: A (a compound having 10 or more and less than 20 is denoted as A); NRAS/KRAS (ratio of KD value with respect to GDP-bound NRAS wild-type protein to KD value with respect to KRAS) [3]: AA (a compound having 20 or more is denoted as AA)
13 | CCCN1C(=O)[C@@H]2CCN2C(=O)CN(C)C(=O)[C@H]([C@@H](C)CC)NC(=O)[C@H](CC(C)C)N(C)C(=O)C[C@@H](C(=O)N(C)C)N(C)C(=O)[C@H](C2CCCC2)N(C)C(=O)C2(CCCC2)NC(=O)[C@@H]2CC(F)(F)CN2C(=O)[C@H](CCc2ccc(C(F)(F)F)c(Cl)c2)NC(=O)CN(C)C(=O)[C@@H]1Cc1ccc(C(F)(F)F)cc1 [PP0442] ([NMeL]I[Sar][Aze][NPrPhe(4-CF3)][Sar][hPhe(3-Cl-4-CF3)][Pro(4,4-F2)][Ac5c][NMeGly(cPent)][NMeD]-NMe2; lactam N-11) |  |  |  | 0.037 | HRAS/KRAS (ratio of KD value with respect to HRAS to KD value with respect to KRAS) [2]: C (A compound having a KD ratio of 0.1 or more and less than 3 is denoted as C); NRAS/KRAS (ratio of KD value with respect to NRAS to KD value with respect to KRAS) [3]: C (A compound having a KD ratio of 0.1 or more and less than 3 is denoted as C)
